From US20070276134A1, “COMPOSITIONS AND METHODS FOR COMPLEXES OF NUCLEIC ACIDS AND ORGANIC CATIONS” (NASTECH PHARMACEUTICAL COMPANY INC., priority 2006, published 2007) come the findings set out here.

This data set can be described thus: LogP determination in n-octanol and water, classical equilibrium partitioning method.

Protocol: A LogP determination was performed on the salts in n-octanol and water using the classical equilibrium partitioning method. This was performed to evaluate the hydrophobic physical properties of the peptide and determine if there was a difference in the apparent hydrophobicity of the salt form of the siRNA versus the control of the sodium salt of siRNA.

As to DOTAP, the “partitioning as a salt versus partitioning as the sodium salt siRNA complex of DOTAP” value (1-octanol) is listed as “distinctly different”.

The LogP is a log measure of how a compound divides between an organic and an aqueous phase. Sodium: the LogP (n-octanol and water, salt form of siRNA) is reported as −1.98.
